{"source": "patent US20190054097A1", "about": "“COMPOSITIONS TARGETING SENESCENT CELLS AND THE USES THEREOF” (BioVentures, LLC, priority 2016, published 2019)", "target": "T1, Bcl-xL (Homo sapiens, UniProt Q07817)", "T1 construct": "endogenous in cells; host or cells: IR-SC WI38 cells", "T1 sequence (Q07817 whole entry)": "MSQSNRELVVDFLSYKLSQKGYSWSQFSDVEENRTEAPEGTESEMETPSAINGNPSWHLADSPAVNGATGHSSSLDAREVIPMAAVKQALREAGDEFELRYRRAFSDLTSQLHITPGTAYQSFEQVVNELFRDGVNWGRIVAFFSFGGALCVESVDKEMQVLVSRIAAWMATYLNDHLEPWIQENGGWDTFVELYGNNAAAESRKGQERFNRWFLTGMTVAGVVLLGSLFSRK", "assay": "Protein degradation assay (western blot) in IR-SC WI38 cells", "assay_type": "cell-based", "conditions": "increasing concentrations for 18 hours (FIG. 3A); fixed concentration for increasing times (FIG. 3B)", "procedure": "IR-SC WI38 cells were incubated with vehicle or increasing concentrations of XZ-14439 for 18 hours at increasing […] (FIG. 3A) and at a fixed concentration of XZ-14439 for increasing times (FIG. 3B). The cells were digested with 0.25% trypsin and 1 mM EDTA, and harvested in RIPA lysis buffer with 1% Phosphatase Inhibitor Cocktail 3 and 1% Protease Inhibitor Cocktail. An equal amount of protein (15-30 μg/lane) from each cell extract was resolved on a 12% SDS-PAGE gel. Proteins were blotted onto a NOVEX PVDF membrane by electrophoresis. The membranes were blocked with TBS-T blocking buffer (5% nonfat milk in 25 mM Tris-HCL, pH 7.4; 3 mM KCl; […] NaCl; and 0.05% Tween) and probed with primary antibodies (at a predetermined optimal concentration) overnight at 4° C. or for 1 hour at room temperature. […] After three washes with TBS-T, the proteins of interest were detected with ECL Western Blotting Detection Reagents and recorded with autoradiography (Pierce Biotech, Rockford, Ill., USA). […]\nIR-SC WI38 (FIG. 4A) and RS4; 11 (FIG. 4B) cells were incubated with vehicle or increasing concentrations of compounds of Formula (I) or Formula (II) for 6 or 16 hours, at 1 μM (FIG. 4A) and 100 nm (FIG. 4B), respectively. […] After three washes with TBS-T, the proteins of interest were detected with ECL Western Blotting Detection Reagents and recorded with autoradiography. […]"}
{"smiles": "CC1(C)CCC(c2ccc(Cl)cc2)=C(CN2CCN(c3ccc(C(=O)NS(=O)(=O)c4ccc(N[C@H](CCN5CCN(C(=O)CCCn6cc(COCCOCCOCCNc7cccc8c7C(=O)N(C7CCC(=O)NC7=O)C8=O)nn6)CC5)CSc5ccccc5)c(S(=O)(=O)C(F)(F)F)c4)cc3)CC2)C1", "note": "(stereo partly drawn) [XZ-14439, 4-(4-((4′-chloro-4,4-dimethyl-3,4,5,6-tetrahydro-[1,1′-biphenyl]-2-yl)methyl)piperazin-1-yl)-N-((4-(((2R)-4-(4-(4-(4-((2-(2-(2-((2-(2,6-dioxopiperidin-3-yl)-1,3-dioxoisoindolin-4-yl)amino)ethoxy)ethoxy)ethoxy)methyl)-1H-1,2,3-triazol-1-yl)butanoyl)piperazin-1-yl)-1-(phenylthio)butan-2-yl)amino)-3-((trifluoromethyl)sulfonyl)phenyl)sulfonyl)benzamide]", "values": [{"measurement": "Bcl-xL depletion in IR-SC WI38 cells, dose and time dependence", "result": "depletes Bcl-xL"}]}
